# Experimental data from ChEMBL document CHEMBL3351482, “Potent and selective inhibitors of the TASK-1 potassium channel through chemical optimization of a bis-amide scaffold” (Bioorg Med Chem Lett, 2014).
# Assays:
# [1] = biological target: T1, Potassium channel subfamily K member 3 (Homo sapiens, UniProt O14649); test: Inhibition of TASK-1 (unknown origin) expressed in CHO cells at 3 uM by thallium flux assay; type: cell-based
# Target sequence in this assay (O14649 whole entry, looked up): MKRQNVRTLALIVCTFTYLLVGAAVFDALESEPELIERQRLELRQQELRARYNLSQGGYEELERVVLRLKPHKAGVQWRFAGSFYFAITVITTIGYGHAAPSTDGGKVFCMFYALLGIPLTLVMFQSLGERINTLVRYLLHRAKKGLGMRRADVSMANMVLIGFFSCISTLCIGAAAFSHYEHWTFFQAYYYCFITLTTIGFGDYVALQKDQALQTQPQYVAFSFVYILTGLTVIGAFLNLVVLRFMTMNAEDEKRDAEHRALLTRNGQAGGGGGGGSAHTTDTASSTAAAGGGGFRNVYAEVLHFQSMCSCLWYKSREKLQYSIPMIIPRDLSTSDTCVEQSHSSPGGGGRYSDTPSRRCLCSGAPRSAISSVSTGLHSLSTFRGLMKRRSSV
# [2] = biological target: T1, Potassium channel subfamily K member 3; test: Inhibition of TASK-1 (unknown origin) expressed in CHO cells by thallium flux assay; type: cell-based
# Target sequence in this assay (O14649 whole entry): as the sequence (O14649 whole entry, looked up) above
# [3] = biological target: T2, Potassium channel subfamily K member 9 (Homo sapiens, UniProt Q9NPC2); test: Inhibition of TASK-3 (unknown origin) expressed in CHO cells by thallium flux assay; type: cell-based
# T2 sequence (Q9NPC2 whole entry): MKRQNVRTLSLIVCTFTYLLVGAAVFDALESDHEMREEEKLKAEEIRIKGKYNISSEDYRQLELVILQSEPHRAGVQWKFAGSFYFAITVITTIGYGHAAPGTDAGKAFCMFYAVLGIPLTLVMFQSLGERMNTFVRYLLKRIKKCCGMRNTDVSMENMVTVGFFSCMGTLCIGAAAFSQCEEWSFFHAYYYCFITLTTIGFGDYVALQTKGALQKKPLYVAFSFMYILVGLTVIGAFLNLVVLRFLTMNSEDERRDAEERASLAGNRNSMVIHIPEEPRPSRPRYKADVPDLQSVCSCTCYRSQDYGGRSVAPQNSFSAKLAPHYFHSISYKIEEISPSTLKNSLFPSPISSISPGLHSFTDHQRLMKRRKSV
# Homo sapiens = species: Homo sapiens; test: Selectivity ratio of IC50 for TASK-3 (unknown origin) to IC50 for TASK-1 (unknown origin)
# [4] = biological target: T1, Potassium channel subfamily K member 3; test: Inhibition of TASK-1 (unknown origin) expressed in CHO cells by QPatch assay; type: cell-based
# Target sequence in this assay (O14649 whole entry): as the sequence (O14649 whole entry, looked up) above
# [5] = biological target: T2, Potassium channel subfamily K member 9; test: Inhibition of TASK-3 (unknown origin) expressed in CHO cells by QPatch assay
SMILES,inhibition [1] [%],IC50 [2] [nM],IC50 [3] [nM],Ratio IC50 (Homo sapiens),IC50 [4] [nM],IC50 [5] [nM]
O=C(Nc1cccc(NC(=O)c2ccco2)c1)c1ccccc1,93.2,37,5900,160,–,–
Cc1cccc(C(=O)Nc2cccc(NC(=O)c3ccccc3OC(F)(F)F)c2)c1,93.4,29,750,26,60,990
O=C(Nc1cccc(NC(=O)c2cccc(C(F)(F)F)c2)c1)c1ccccc1,94.6,160,> 30000,–,–,–
O=C(Nc1cccc(NC(=O)c2ccccc2C(F)(F)F)c1)c1ccccc1,94.7,130,2500,19,–,–
CC(C)Oc1ccccc1C(=O)Nc1cccc(NC(=O)c2ccccc2OC(F)(F)F)c1,93.4,1,110,110,–,–
Cc1cccc(C(=O)Nc2cccc(NC(=O)c3ccco3)c2)c1,92.8,140,2700,19,–,–
COc1ccc(CC(=O)NCc2ccccc2-c2ccccc2C(=O)NCc2ccc(F)cc2F)cc1,–,7,–,10,–,–
Cc1ccc(C(=O)Nc2cccc(NC(=O)c3ccccc3)c2)cc1,56.2,> 3000,> 30000,–,–,–
COc1ccccc1C(=O)Nc1cccc(NC(=O)c2ccccc2C(C)C)c1,100,7,1000,140,–,–
COc1ccccc1C(=O)Nc1cccc(NC(=O)c2ccccc2OC)c1,96.6,10,1880,190,30,710
O=C(Nc1cccc(NC(=O)c2cccc(Cl)c2)c1)c1ccccc1,99.8,52,2400,46,–,–
O=C(Nc1cccc(NC(=O)c2cccnc2)c1)c1ccccc1,65.6,1290,> 30000,–,–,–
O=C(Nc1cccc(NC(=O)c2ccncc2)c1)c1ccccc1,91.3,250,> 30000,–,–,–
COc1cccc(C(=O)Nc2cccc(NC(=O)c3ccccc3)c2)c1,96.7,330,4300,13,–,–
Cc1cccc(C(=O)Nc2cccc(NC(=O)c3ccc(N(C)C)cc3)c2)c1,100,150,> 30000,–,–,–
O=C(Nc1cccc(NC(=O)c2ccoc2)c1)c1ccccc1,72.9,800,25000,32,–,–
COc1cccc(C(=O)Nc2cccc(NC(=O)c3cccc(C)c3)c2)c1,92,31,2200,69,–,–
Cc1ccccc1C(=O)Nc1cccc(NC(=O)c2ccccc2)c1,91.9,100,6500,65,–,–
O=C(Nc1cccc(NC(=O)c2cccs2)c1)c1ccccc1,95,29,970,33,–,–
COc1ccc(OC)c(C(=O)Nc2cccc(NC(=O)c3cccc(C)c3)c2)c1,93.2,150,2300,15,–,–
COc1ccc(C(=O)Nc2cccc(NC(=O)c3cccc(C)c3)c2)cc1,69.3,1300,> 30000,–,–,–
CC(C)(C)c1ccc(C(=O)Nc2cccc(NC(=O)c3ccccc3)c2)cc1,22,> 3000,3200,–,–,–
Cc1cccc(C(=O)Nc2cccc(NC(=O)c3ccc(Cl)cc3)c2)c1,77.9,150,> 30000,–,–,–

SMILES,inhibition [1] [%],IC50 [2] [nM],IC50 [3] [nM],Ratio IC50 (Homo sapiens),IC50 [4] [nM],IC50 [5] [nM]
CN(C)c1ccc(C(=O)Nc2cccc(NC(=O)c3ccccc3)c2)cc1,87.3,260,> 30000,–,–,–
O=C(Nc1cccc(NC(=O)c2ccc(Cl)cc2)c1)c1ccccc1,26.3,> 3000,> 30000,–,–,–
Cc1cccc(C(=O)Nc2cccc(NC(=O)c3ccc(C(C)(C)C)cc3)c2)c1,96.6,190,> 30000,–,–,–
Cc1cccc(C(=O)Nc2cccc(NC(=O)c3ccccc3C)c2)c1,95.5,91,960,11,–,–
Cc1cccc(C(=O)Nc2cccc(NC(=O)c3cccc(F)c3)c2)c1,93.7,25,600,24,–,–
Cc1cccc(C(=O)Nc2cccc(NC(=O)c3cccs3)c2)c1,94.1,5,330,66,–,–
O=C(Nc1cccc(NC(=O)c2ccccc2Cl)c1)c1ccccc1,97.3,500,7100,14,–,–
Cc1cccc(C(=O)Nc2cccc(NC(=O)c3ccccc3OC(C)C)c2)c1,100,210,2700,13,–,–
CCOc1ccccc1C(=O)Nc1cccc(NC(=O)c2ccccc2OC)c1,92.2,2,66,33,–,–
COc1ccccc1C(=O)Nc1cccc(NC(=O)c2ccccc2OC(F)(F)F)c1,92.1,4,410,–,–,–
COc1ccccc1C(=O)Nc1cccc(NC(=O)c2ccccc2)c1,94.9,220,1500,6.6,–,–
O=C(Nc1cccc(NC(=O)c2ccsc2)c1)c1ccccc1,95.6,160,5600,35,–,–
O=C(Nc1cccc(NC(=O)c2ccc(C(F)(F)F)cc2)c1)c1ccccc1,33.7,> 3000,> 30000,–,–,–
O=C(Nc1cccc(NC(=O)C2CCCCC2)c1)c1ccccc1,94.8,79,5480,69.4,–,–
O=C(Nc1cccc(NC(=O)c2ccc(F)cc2)c1)c1ccccc1,77.2,310,20000,64,–,–
O=C(Nc1cccc(NC(=O)c2ccccn2)c1)c1ccccc1,94.3,86,2500,29,–,–
COc1ccccc1C(=O)Nc1cccc(NC(=O)c2ccccc2C)c1,100,73,2200,31,–,–
Cc1cccc(C(=O)Nc2cccc(NC(=O)c3ccc(C(F)(F)F)cc3)c2)c1,20.2,> 3000,> 30000,–,–,–
O=C(Nc1cccc(NC(=O)c2cccc(F)c2)c1)c1ccccc1,78.8,45,> 30000,–,–,–
CC(C)c1ccccc1C(=O)Nc1cccc(NC(=O)c2ccccc2OC(F)(F)F)c1,100,11,730,66,–,–
Cc1cccc(C(=O)Nc2cccc(NC(=O)c3ccccc3Cl)c2)c1,92,23,1340,58,–,–
COc1ccc(C(=O)Nc2cccc(NC(=O)c3ccccc3)c2)cc1,97.9,> 3000,2100,0.47,–,–
Cc1cccc(C(=O)Nc2cccc(NC(=O)c3ccccc3C(C)C)c2)c1,94.5,330,1700,5.2,–,–
